In ChEMBL document CHEMBL2074507, “Transport of small organic cations in the rat liver. The role of the organic cation transporter OCT1” (Naunyn Schmiedebergs Arch Pharmacol, 1996):

The molecules below were run on C[n+]1ccc(-c2ccccc2)cc1 (assay: TP_TRANSPORTER: uptake in OCT1-expressing HEK293 cells).
Type: functional, cell-based

Molecule	Km [µM]
Solute carrier family 22 member 1 (Rattus norvegicus) (protein) MPTVDDVLEQVGEFGWFQKQAFLLLCLISASLAPIYVGIVFLGFTPGHYCQNPGVAELSQRCGWSQAEELNYTVPGLGPSDEASFLSQCMRYEVDWNQSTLDCVDPLSSLVANRSQLPLGPCEHGWVYDTPGSSIVTEFNLVCGDAWKVDLFQSCVNLGFFLGSLVVGYIADRFGRKLCLLVTTLVTSVSGVLTAVAPDYTSMLLFRLLQGMVSKGSWVSGYTLITEFVGSGYRRTTAILYQMAFTVGLVGLAGVAYAIPDWRWLQLAVSLPTFLFLLYYWFVPESPRWLLSQKRTTRAVRIMEQIAQKNGKVPPADLKMLCLEEDASEKRSPSFADLFRTPNLRKHTVILMYLWFSCAVLYQGLIMHVGATGANLYLDFFYSSLVEFPAAFIILVTIDRIGRIYPIAASNLVTGAACLLMIFIPHELHWLNVTLACLGRMGATIVLQMVCLVNAELYPTFIRNLGMMVCSALCDLGGIFTPFMVFRLMEVWQALPLILFGVLGLTAGAMTLLLPETKGVALPETIEEAENLGRRKSKAKENTIYLQVQTGKSSST	13

Each molecule was assayed against T1, Solute carrier family 22 member 1 (Rattus norvegicus, UniProt Q63089) (assay: TP_TRANSPORTER: inhibition of MPP+ uptake in OCT1-expressing HEK293 cells).
T1 sequence (Q63089 whole entry): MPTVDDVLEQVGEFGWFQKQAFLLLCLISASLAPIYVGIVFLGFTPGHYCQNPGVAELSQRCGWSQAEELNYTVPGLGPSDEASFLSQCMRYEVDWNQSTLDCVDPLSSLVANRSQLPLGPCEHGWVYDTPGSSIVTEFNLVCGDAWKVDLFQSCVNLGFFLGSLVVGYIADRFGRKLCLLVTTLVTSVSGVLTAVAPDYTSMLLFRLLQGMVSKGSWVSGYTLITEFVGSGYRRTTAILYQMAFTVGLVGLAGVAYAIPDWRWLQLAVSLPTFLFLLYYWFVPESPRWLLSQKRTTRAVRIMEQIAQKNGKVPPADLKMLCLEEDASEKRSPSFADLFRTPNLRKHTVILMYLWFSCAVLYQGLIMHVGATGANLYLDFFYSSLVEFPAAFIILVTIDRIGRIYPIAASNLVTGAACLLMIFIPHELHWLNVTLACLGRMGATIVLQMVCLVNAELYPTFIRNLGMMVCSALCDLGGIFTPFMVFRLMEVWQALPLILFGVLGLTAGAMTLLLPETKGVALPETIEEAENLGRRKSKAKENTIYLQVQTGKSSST
Type: functional, cell-based

Molecule	Ki [nM]
CCN1/C(=C/c2ccc3ccccc3[n+]2CC)C=Cc2ccccc21	500
Clc1cccc(Cl)c1N=C1NCCN1 [CLONIDINE]	1400
C[C@]12C[C@H](O)[C@H]3[C@@H](CCC4=CC(=O)CC[C@@]43C)[C@@H]1CC[C@@H]2C(=O)CO [CORTICOSTERONE]	72000
CC[n+]1c(CC2C=C(C)N=C(c3ccccc3)N2C)ccc2ccccc21 (configuration not stated) [Cyanine-863]	670
CC(C)N1/C(=C\c2cc[n+](C(C)C)c3ccccc23)C=Cc2ccccc21 [DISPROCYNIUM24]	110
COc1cc(C(O)CNC(C)C)ccc1O (configuration not stated) [METIPRENALINE]	25000
